Measured values reported in patent publication US9499823B2, “Constructs expressing chimeric receptors and use thereof for the controlled activation of defence response to pathogens in plants” (priority 2009, dated 2016).
Where no end group is shown, it is not given here.

Key:
[1] = tested on: RetOx, CYP81F2 and PAD3 transcripts; test: Elicitor-induced accumulation of Ret-Ox, CYP81F2 and PAD3 transcripts, semi-quantitative PCR; format: cell-based, Arabidopsis thaliana; conditions: flg22 1 μM, 30 minutes
Description: B) Elicitor induced accumulation of Ret-Ox, CYP81F2 and PAD3 transcripts analysed by semi-quantitative PCR, using the UBQ5 gene for normalization. Leaves were incubated with water, flg22 (1 μM), elfl8 (10 μM) or a generic peptide (10 μM) for 30 minutes. The experiment was repeated three times with similar results. The same experiment was performed in a second independent transgenic line expressing eJMC with similar results.
3,3′-diaminobenzidine (DAB) staining, callose deposition and gene resistance analysis were assayed as described (Galletti et al., 2008). For measuring active oxygen species released by tobacco agroinfiltrated plants after elicitor treatment, the authors used a modified luminol-dependent assay (Gomez et al., 1999). Slices, corresponding to approximately 30 mg fresh weight, were transferred to assay tubes containing 1 μM flg22 or 10 μM elfl8 in aqueous solution supplied with 40 μM luminol (SIGMA). Chemo-luminescence was measured in a liquid scintillation counter (LS-6500, Beckman) after 5 and 15 min upon addition of elicitors.
Fluorescent eJMC and FLS2 were also stably expressed in transgenic Arabidopsis ecotype Wassilewskija (Ws-0), which carries EFR but lacks a flg22 perception system (Gomez-Gomez et al., 1999, Bauer et al., 2001). Transformed T1 plants expressing the proteins, named eJMC plants and FLS2 plants, respectively, were selected by confocal microscopy analysis of adult rosette leaves. […] Fluorescence was detected only in adult rosette leaves, likely due to a low expression level of the receptor at the different developmental stages.

[2] = tested on: agroinfiltrated Arabidopsis thaliana Col-0 leaves; test: Receptor internalization: decrease of GFP fluorescence by confocal microscopy in agroinfiltrated Arabidopsis Col-0 leaves; format: cell-based; conditions: 10 μM flg22, 30 min
Description: PCR templates are shown in bold. Primers listed in Table 1 are shown in capital letters. Stable transgenic lines were generated using the standard A. tumefaciens-mediated gene transfer procedure of inflorescence infiltration (Bent et al., 2006). Independent transformed plant pools were kept separate for the selection of independent transgenic lines based on their phosphinotrycin resistance and leaves GFP fluorescence. Tobacco and Arabidopsis transient transgenic lines were prepared by infiltrating with Agrobacterium tumefaciens carrying the individual constructs, as described by Reca (2008).
The GFP-dependent fluorescence was monitored from 2 to 4 days post infection in cells of the lower epidermis. Pieces of leaf were randomly cut from the infected area and mounted in water or supplemented with elicitors for microscopic observations. Flg22 and elfl8 were used at 10 μM while oligosaccharides were used at 100 μg/mL. Materials were analyzed using a Leica DM IRE epifluorescence microscope equipped with a digital cooled camera (DFC350FX R2; Leica). GFP fluorescence was excited with a 488-nm laser line, and emitted fluorescence was collected at 543-nm. The Leica Confocal Software and Adobe Photoshop 5.0 were used for post-acquisition image processing. All samples were imaged with the 40× or 100× oil objectives. Pictures were taken in Kahlman frame giving an average of 16 scans for the dynamics of internalization and 4 scans for the cellular localizations. […]
The dynamics of fluorescence localization upon treatment with elicitors was then studied. Whereas endocytosis of surface receptors upon ligand binding often occurs in animals (Warren and Landgraf 2006), this mechanism in plants has emerged only recently (Geldner & Robatzek 2008) and, so far, FLS2 is the only receptor involved in plant immunity shown to undergo endocytosis upon the specific stimulation with flg22 (Robatzek et al., 2006). The authors tested the effect of flg22 and elf 18, i.e. the peptides specifically recognized by FLS2 and EFR respectively, and oligogalacturonides with a degree of polymerization between 10 and 16 (OGs), which act as general elicitors of defense responses in several plants. Explants from agroinfiltrated Arabidopsis leaves at 2 dpi were treated with elicitors and then subjected to confocal microscopy analysis. […] Instead, when eJMC-expressing explants were stimulated with flg22, the fluorescent signal decreased by 25% and 40% after 20 min and 30 min, respectively (FIG. 3B).
The first chimeric receptor, indicated as WEG, comprised the WAK1 ectodomain fused to the TM-iJM-kinase portion of EFR and was designed to test the ability of the WAK1 ectodomain to perceive OGs and transmit the signal inside the cell. […] Both WEG and EWAK as well as WAK1 were fused to GFP and used in agroinfiltration experiments (FIG. 5A). […] Western-blot analysis using GFP-specific antibodies on proteins from IWF and microsomal fractions prepared from infiltrated leaves confirmed the plasma membrane localization of both fluorescent chimeras (FIG. 5D). The effect of OGs on the internalization of WEG was followed in agroinfiltrated Arabidopsis Col-0 leaves. […] This might be due to the inability of WEG to uncouple its ectodomain from pectins, since it is known that WAK1 strongly binds to pectin and only denaturing treatments allow its separation from cell wall (He et al., 1996). On the other hand, affinity studies have shown that WAK1 interact with cell wall pectins that are in a Ca^2+-induced conformation (i.e. the structures called “egg boxes”) and that the interaction is disrupted by adding a chelating agent such as EDTA (Decreux et al., 2005; Cabrera et al., 2008). The authors therefore tested whether OG-induced internalization of WEG occurred in the presence of 5 mM EDTA. WEG-expressing agroinfiltrated leaves were syringe-infiltrated with OGs and after 30 min the tissues were mounted in the presence of EDTA for confocal microscopy analysis. […]

[3] = tested on: agroinfiltrated leaves of N. tabacum ecotype SR1; test: Receptor internalization in agroinfiltrated tobacco leaves; format: cell-based, Nicotiana tabacum; conditions: 10 μM flg22, 30 min
Description: E) Relative variation of fluorescence in agroinfiltrated tobacco leaves expressing EFR, FLS2, eJMC and TMC and treated with 10 μM elfl8 or 10 μM flg22 for 30 min.
The GFP-dependent fluorescence was monitored from 2 to 4 days post infection in cells of the lower epidermis. Pieces of leaf were randomly cut from the infected area and mounted in water or supplemented with elicitors for microscopic observations. Flg22 and elfl8 were used at 10 μM while oligosaccharides were used at 100 μg/mL. Materials were analyzed using a Leica DM IRE epifluorescence microscope equipped with a digital cooled camera (DFC350FX R2; Leica). GFP fluorescence was excited with a 488-nm laser line, and emitted fluorescence was collected at 543-nm. The Leica Confocal Software and Adobe Photoshop 5.0 were used for post-acquisition image processing. All samples were imaged with the 40× or 100× oil objectives. Pictures were taken in Kahlman frame giving an average of 16 scans for the dynamics of internalization and 4 scans for the cellular localizations.
The behaviour of TMC and eJMC upon treatment with flg22 and elfl8 was also analysed in agroinfiltrated leaves of N. tabacum ecotype SR1 and compared to that of EFR and FLS2. […] Instead, in the eJMC expressing plants fluorescence decreased within 10-30 min after stimulation with flg22, at an extent similar to that observed in Arabidopsis, i.e. by 25% and 35% after 20 min and 30 min, respectively (FIG. 3E).

[4] = tested on: ethylene biosynthesis in tobacco leaves; test: Induction of ethylene biosynthesis in agroinfiltrated tobacco leaf explants; format: cell-based, Nicotiana tabacum; conditions: flg22, 2 h; compared with EFR-expressing explants as negative controls
Description: F) Induction of ethylene biosynthesis in agroinfiltrated tobacco leaves expressing the fluorescent EFR, FLS2, TMC, eJMC and eJMC^Y859A. NC: negative control, represented by agroinfiltrated leaf tissues expressing fluorescent EFR or FLS2 and elicited with flg22 or elfl8, respectively. Results are averages±standard error (n=3).
Excised infiltrated leaf sectors were stimulated for 2 h with water or the elicitor ([…] and 100 μg/ml for OGs). Values are means±s.e.m. (N=3).
E) Induction of ethylene biosynthesis in agroinfiltrated tobacco leaves expressing EFR, WAK1, WEG and EWAK. Each construct was stimulated for 2 h with elfl8 (10 μM) or OGs (100 μg/mL). NC: negative control, represented by agroinfiltrated leaf tissue expressing EFR or FLS2 when OGs or elfl8, respectively, were used for elicitation. Error bars indicate the standard error of three independent replicates.
(A) Induction of ethylene biosynthesis in agroinfiltrated tobacco explants expressing EFR, WAK1, WEG and EWAK. […] Agroinfiltrated leaf tissues expressing EFR or WEG and elicited with OGs or elfl8 respectively, represented our negative control. Values are means±s.e.m. (N=3). (B) Elicitor-induced gene expression in untransformed Col-0 and Col-0 efr plants, and in transgenic Arabidopsis Col-0 efr plants stably expressing WEG. Accumulation of At3g22270 and At4g37640 transcripts was analysed by semi-quantitative PCR, using the UBQ5 gene for normalization. Adult leaves were syringe-infiltrated with water, OGs (25 μg/ml) or elfl8 (10 μM) for 3 h. The experiment was repeated three times with similar results. The same experiment was performed in a second independent transgenic line expressing WEG with similar results.
Approximately 150 mg of tobacco agroinfiltrated leaf were cut in small slices and extensively washed with sterile distilled water. The explants were placed in sealed 10 mL flasks containing 2 mL of sterile water alone or supplemented with 100 mg L^−1 OGs, or 1 μM flg22 or 10 μM elfl8. 450 μl headspace samples were withdrawn from the vial after 2 h treatment and analyzed by gas chromatography-mass spectrometry using an Agilent 6850A gas chromatograph coupled to a 5973N quadrupole mass selective detector (Agilent Technologies, Palo Alto, Calif., USA). Chromatographic separations were carried out an HP Plot-Q fused-silica capillary column (30 m×0.32 mm i.d.) coated with polystyrene-divinylbenzene (film thickness 0.20 μm) as stationary phase. Injection mode: splitless at a temperature of 220° C. The initial temperature of the oven was held at 50° C. for 8 min then ramped to 220° C. at a rate of 15° C./min and held for 5 min. Helium was used as carrier gas at a constant flow of 1.0 ml/min. Mass spectra were collected both in full scan and in SIM mode monitoring the ions m/z m/z 26, m/z 27 and m/z 28 (ionization energy 70 eV; ion source 280° C.; ion source vacuum 10^−5 Torr).

Substance	expression of RetOx, CYP81F2 and PAD3 in untransformed Ws-0 plants [1]	decrease in fluorescence upon treatment with flg22 [2]	internalization after stimulation with flg22 [3]	ethylene release induced by flg22 [4]
QRLSTGSRINSAKDDAAGLQIA [flg22]	not in the untransformed plants	–	–	–
TMC: chimera (Ala817FLS2-Leu661EFR): FLS2 LRR, eJM and N-terminal half of TM fused to C-terminal half of EFR TM, iJM and kinase	–	did not show any decrease in fluorescence	Neither FLS2 nor TMC underwent internalization	only a weak response
